What was measured:
Conditions in all cases: incubation time: 72 h
MFM-223 [1] = experiment: normalised response (% of control), CellTox Green; higher = less cell death (100 = DMSO, 0 = benzethonium chloride kill control)
In short: (§1)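 Every value is a normalised signal taken at one concentration of a dilution series. Compound was placed in 384-well plates at 5 concentrations in 10-fold steps over a compound-specific 10,000-fold range, and 20 µl of breast cancer cell suspension was seeded onto it. After 72 h, CellTox Green fluorescence (485/520 nm) was measured first and CellTiter-Glo luminescence second, following 10 min at room temperature. Each plate was scaled to 0.1 % DMSO (100) and a positive kill control (0).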

HCC1937 [2] = experiment: as above
In short: as §1

HCC1143 [3] = experiment: as above
In short: as §1

CAL-85-1 [4] = experiment: as above
In short: as §1

Hs578T [5] = experiment: as above
In short: as §1

CAL-51 [6] = experiment: as above
In short: as §1

MCF-10A [7] = experiment: as above
In short: as §1

MDA-MB-436 [8] = experiment: as above
In short: as §1

HCC1599 [9] = experiment: as above
In short: as §1

BT-549 [10] = experiment: as above
In short: as §1

MDA-MB-453 [11] = experiment: as above
In short: as §1

MDA-MB-231 [12] = experiment: as above
In short: as §1

HDQ-P1 [13] = experiment: as above
In short: as §1

BT-474 [14] = experiment: as above
In short: as §1

CAL-120 [15] = experiment: as above
In short: as §1

CAL-148 [16] = experiment: as above
In short: as §1

MFM-223 [17] = experiment: normalised response (% of control), CellTiter-Glo; higher = more viable cells (100 = DMSO, 0 = benzethonium chloride kill control)
In short: as §1

HCC1937 [18] = experiment: as above
In short: as §1

HCC1143 [19] = experiment: as above
In short: as §1

CAL-85-1 [20] = experiment: as above
In short: as §1

Hs578T [21] = experiment: as above
In short: as §1

SK-BR-3 = experiment: as above
In short: as §1

CAL-51 [22] = experiment: as above
In short: as §1

MCF-10A [23] = experiment: as above
In short: as §1

MDA-MB-436 [24] = experiment: as above
In short: as §1

HCC1599 [25] = experiment: as above
In short: as §1

BT-549 [26] = experiment: as above
In short: as §1

MDA-MB-453 [27] = experiment: as above
In short: as §1

MDA-MB-231 [28] = experiment: as above
In short: as §1

HDQ-P1 [29] = experiment: as above
In short: as §1

BT-474 [30] = experiment: as above
In short: as §1

CAL-120 [31] = experiment: as above
In short: as §1

CAL-148 [32] = experiment: as above
In short: as §1

DU-4475 [33] = experiment: normalised response (% of control), CellTox Green; higher = less cell death (100 = DMSO, 0 = benzethonium chloride kill control)
In short: as §1

DU-4475 [34] = experiment: normalised response (% of control), CellTiter-Glo; higher = more viable cells (100 = DMSO, 0 = benzethonium chloride kill control)
In short: as §1

MDA-MB-468 = experiment: as above
In short: as §1

Row | Structure (SMILES) | normalised response (MFM-223 [1]) [%] | normalised response (HCC1937 [2]) [%] | normalised response (HCC1143 [3]) [%] | normalised response (CAL-85-1 [4]) [%] | normalised response (Hs578T [5]) [%] | normalised response (CAL-51 [6]) [%] | normalised response (MCF-10A [7]) [%] | normalised response (MDA-MB-436 [8]) [%] | normalised response (HCC1599 [9]) [%] | normalised response (BT-549 [10]) [%] | normalised response (MDA-MB-453 [11]) [%] | normalised response (MDA-MB-231 [12]) [%] | normalised response (HDQ-P1 [13]) [%] | normalised response (BT-474 [14]) [%] | normalised response (CAL-120 [15]) [%] | normalised response (CAL-148 [16]) [%] | normalised response (MFM-223 [17]) [%] | normalised response (HCC1937 [18]) [%] | normalised response (HCC1143 [19]) [%] | normalised response (CAL-85-1 [20]) [%] | normalised response (Hs578T [21]) [%] | normalised response (SK-BR-3) [%] | normalised response (CAL-51 [22]) [%] | normalised response (MCF-10A [23]) [%] | normalised response (MDA-MB-436 [24]) [%] | normalised response (HCC1599 [25]) [%] | normalised response (BT-549 [26]) [%] | normalised response (MDA-MB-453 [27]) [%] | normalised response (MDA-MB-231 [28]) [%] | normalised response (HDQ-P1 [29]) [%] | normalised response (BT-474 [30]) [%] | normalised response (CAL-120 [31]) [%] | normalised response (CAL-148 [32]) [%] | normalised response (DU-4475 [33]) [%] | normalised response (DU-4475 [34]) [%] | normalised response (MDA-MB-468) [%]
1 | CCC(C)(C)C(=O)O[C@H]1C[C@@H](C)C=C2C=C[C@H](C)[C@H](CC[C@@H]3C[C@@H](O)CC(=O)O3)[C@H]21 [Simvastatin] (1000 nM) | 100 | 78.2 | 115 | 97.2 | 77.5 | 111 | 93.2 | 106 | 95.7 | 94.5 | 106 | 86.9 | 81.5 | 94.2 | 102 | 102 | 98.9 | 98.4 | 96.3 | 96.6 | 92.9 | 106 | 109 | 111 | 98.9 | 102 | 93.6 | 102 | 81.6 | 92.6 | 75 | 96.7 | 104 |  |  | 
2 | CC(=O)Nc1ccc(C(=O)Nc2ccccc2N)cc1 [Tacedinaline] (100 nM) | 101 | 115 | 110 | 107 | 92.4 | 103 |  | 110 | 97.4 | 117 | 105 | 108 | 76.9 | 99.1 | 101 | 105 | 106 | 102 | 97.1 | 101 | 98.4 | 95.4 | 114 | 93.7 | 102 | 126 | 106 | 102 | 102 | 100 | 105 | 99.2 | 97.2 | 99.2 | 93.6 | 109
3 | O=C(CCCCCCC(=O)Nc1ccc([C@H]2O[C@@H](CSc3nc(-c4ccccc4)c(-c4ccccc4)o3)C[C@@H](c3ccc(CO)cc3)O2)cc1)NO [Tubacin] (1 nM) |  |  |  |  |  |  |  |  |  |  |  |  |  |  |  |  | 96.8 | 93.3 | 98.9 | 92.4 | 100 | 101 | 119 | 92.8 | 82.1 | 93.5 | 100 | 103 | 97.5 | 94.6 | 94.2 | 96.1 | 97.6 |  | 100 | 91.5
4 | O=C(CCCCCCC(=O)Nc1ccc([C@H]2O[C@@H](CSc3nc(-c4ccccc4)c(-c4ccccc4)o3)C[C@@H](c3ccc(CO)cc3)O2)cc1)NO [Tubacin] (10 nM) |  |  |  |  |  |  |  |  |  |  |  |  |  |  |  |  | 97.9 | 93.1 | 103 | 103 | 104 | 95.2 | 110 | 99.1 | 96 | 95.3 | 101 | 97.2 | 94.4 | 93 | 93.5 | 95.8 | 100 |  | 101 | 91.2
5 | Oc1nc(-c2ccc(C(F)(F)F)cc2)nc2c1CSCC2 [XAV-939] (10 nM) |  |  |  |  |  |  |  |  |  |  |  |  |  |  |  |  | 98.9 | 101 | 99.8 | 98.7 | 102 | 117 | 78.4 | 105 | 99.9 | 108 | 98.6 | 106 | 95.4 | 97.8 | 102 | 93.8 | 101 |  | 104 | 92.9
